Test results: patent publication EP4793276A1, “DRUG FOR DIAGNOSING DIABETIC NEPHROPATHY AND USE THEREOF” (Fudan University, priority 2023, dated 2025)

How the values were obtained:
[1] = tested on: diabetic nephropathy mice; assay: Ex vivo autoradiography of kidneys after tail vein injection; settings: mouse
Source text: The spontaneous type 2 diabetes mice model was developed using the db/db homozygous mice (BKS.Cg-Dock7m+/+LeprdbJ; JAX® Mice Strain Code 607) discovered by the Jackson Laboratory in the United States. […] Their pathogenesis is very similar to that of subjects with type 2 diabetes. The control group mice were either normal mice (m/m) or heterozygous mice (m/db).
Sixty minutes later, the mice were euthanized by dislocation, and their kidneys were removed and rapidly frozen in dry ice. 20 µm frozen sections were prepared using a cryostat (Reward, RWD Minux FS800). Frozen sections were held in contact with the developing plate (FUJIFILM; BAS-IP SR 2025E) for 2 hours, and images were read and quantitatively analyzed using an autoradiography scanner (CR-35 Bio; Elysia-Raytest).

db/db model mice [2] = assay: PET in vivo imaging; settings: 15 MBq intravenous, 90 minutes acquisition, FIG.3
Method: PET scans were performed using an Inveon scanner (Siemens Medical Solutions Knoxville, TN, USA). Mice (m/m and db/db mice) were anesthetized with 1.5% (v/v) isoflurane and then fixed in the center of the FOV of a PET scanner. Immediately after intravenous injection of ^18F-KIDJI-004 (15 MBq), 90 minutes of radiation signals were acquired in three-dimensional mode. The energy window is 350-750 keV. After the PET scan was completed, mice were intravenously injected with iodofol (35%) (Optiray 350; Guerbet) at a dose of 5 µL/g body weight, followed immediately by a 30-second CT scan (X-ray source: 70 kV/88 mA, FOV: 60 mm). Mice were anesthetized with 1.5% (v/v) isoflurane during PET and CT scans.

db/db model mice [3] = assay: SPECT in vivo imaging; settings: 11.1 MBq via the tail vein, acquisition up to 2 hours, FIG.3
Method: SPECT scans were performed using the nanoScan SPECT/CT scanner (Mediso Medical Imaging Systems, Hungary). […] Immediately afterward, the radiation signal was acquired in three-dimensional mode every 30 minutes for up to 2 hours. The energy window is set to 360-700 keV. After completing the SPECT scan, mice were injected with iodofol (Optiray 350; Guerbet) via the tail vein at a dose of 5 µL/g body weight, followed immediately by a 30-second CT scan (X-ray source: 50 kV/980 µA, 480 projections; mice were anesthetized with 1.5% (v/v) isoflurane during both the SPECT and CT scans).

SMILES	accumulation in the renal pelvis of diabetic nephropathy mice [1]	accumulation in the kidneys of normal mice (db/db model mice [2])	accumulation in the renal pelvis of the kidneys of db/db model mice (db/db model mice [2])	accumulation in the kidneys of normal mice (db/db model mice [3])	accumulation in the renal pelvis of the kidneys of db/db model mice (db/db model mice [3])
C[C@H]1Cc2c(nnn2-c2ncccn2)CN1C(=O)c1ccnc(C(F)(F)F)c1[18F] [^18F-KIDJI-003, (S)-(3-fluoro-2-(trifluoromethyl)pyridin-4-yl)(6-methyl-1-(pyrimidin-2-yl)-1,4,6,7-tetrahydro-5H-[1,2,3]triazolo[4,5-c]pyridin-5-yl) methyl ketone]	significant accumulation				
Cc1cc(C(=O)N2Cc3nnn(-c4ncccn4)c3C[C@@H]2C)cc([18F])n1 [^18F-KIDJI-004, (S)-(2-fluoro-6-methylpyridin-4-yl)(6-methyl-1-(pyrimidin-2-yl)-1,4,6,7-tetrahydro-5H-[1,2,3]triazolo[4,5-c]pyridin-5-yl) methyl ketone]		no significant accumulation	significantly accumulated		
COc1ccc(C(=O)N2CCc3c(nnn3-c3ncccn3)C2)cc1[131I] [^131I-KIDJI-008, (3-iodo-4-methoxyphenyl)(1-(pyrimidin-2-yl)-1,4,6,7-tetrahydro-5H-[1,2,3]triazolo[4,5-c]pyridin-5-yl) methyl ketone]				no significant accumulation	significantly accumulated
O=C(c1ccc([N+](=O)[O-])cc1[131I])N1CCc2c(nnn2-c2ncccn2)C1 [^131I-KIDJI-009, (2-iodo-4-nitro)(1-(pyrimidin-2-yl)-1,4,6,7-tetrahydro-5H-[1,2,3]triazolo[4,5-c]pyridin-5-yl) methyl ketone]				no significant accumulation	significantly accumulated

Continued, values first:

accumulation in the renal pelvis of diabetic nephropathy mice [1]	accumulation in the kidneys of normal mice (db/db model mice [2])	accumulation in the renal pelvis of the kidneys of db/db model mice (db/db model mice [2])	accumulation in the kidneys of normal mice (db/db model mice [3])	accumulation in the renal pelvis of the kidneys of db/db model mice (db/db model mice [3])	SMILES
			no significant accumulation	significantly accumulated	O=C(c1ccc([131I])cc1)N1CCc2c(nnn2-c2ncccn2)C1 [^131I-KIDJI-007, (4-iodophenyl)(1-(pyrimidin-2-yl)-1,4,6,7-tetrahydro-5H-[1,2,3]triazolo[4,5-c]pyridin-5-yl) methyl ketone]
			no significant accumulation	significantly accumulated	O=C(c1ccc([131I])cc1F)N1CCc2c(nnn2-c2ncccn2)C1 [^131I-KIDJI-010, (2-fluoro-4-iodophenyl)(1-(pyrimidin-2-yl)-1,4,6,7-tetrahydro-5H-[1,2,3]triazolo[4,5-c]pyridin-5-yl) methyl ketone]
